Values joined by “and” are separate entries in the source; they are usually repeats but may differ in a detail not shown here. Equal entries are not always repeated.
Tested on: GEMS receptors with CBPA11 (BclXL–LD3 and BclXLhigh variants), STAT3-driven SEAP in HEK293T cells
Test: GEMS SEAP reporter assay, CBPA11 (BclXLhigh, LD3-v and BclXL-v variants) with A-1155463
Format: cell-based
Set-up: key to Raw data (SEAP) / SEAP, replicate values / Raw data of Figure 5b / Raw data Figure 5e / Raw data of Independent repeat of CBPA11-v1 vs CBPA11-v1-LD3v3 / Raw data of Independent repeat of CBPA11-v3 vs CBPA11-v3-LD3v3 / Raw data of Figure 5b, CBPA11-v1-LD3v3 (SEAP reporter raw value, single replicate) / Raw data of Figure 5b, CBPA11-v1 (SEAP reporter raw value, single replicate): SEAP activity in U/L in culture supernatant
Excerpt: To rationally design a CBP responding to a chemical input, we used BclXL as the druglow receptor, LD3 as the designed binder and a designed BclXL variant as the drughigh receptor (referred to as BclXLhigh) to construct a CBP responsive to BclXL inhibitors (Fig. 4a). To design BclXLhigh, we used a multistate design computational protocol described elsewhere[26] […] Thus, BclXLhigh-v(1–3) were chosen as the functional drughigh receptors, resulting in three A-1155463-controlled CBPs (referred to as CBPA11-v(1–3)) (Fig. 4c–e).
HEK293T cells were seeded in a 96-well plate 24 h before transfection. The transfection mix in each well consisted of 3 ng of constitutive human CMV promoter driven mammalian STAT3 expression vector (PhCMV-STAT3-pA), 30 ng of STAT3-induced reporter expression (OStat3-PhCMVmin-SEAP-pA) and 50 ng of expression vectors for each GEMS receptor chain (PSV40-IgK-(drughigh receptor)-EpoRm-IL-6RBm-pA and PSV40-IgK-(druglow receptor-GGGGSX3-LD3)-EpoRm-IL-6RBm-pA). For the specific drughigh receptor and druglow receptor used in the different cellular assays, they are indicated as wild type or with mutations. Then, plasmid DNA was mixed with 50 μl opti-MEM (Thermo Fisher) and 600 ng of polyethyleneimine (Polysciences, catalog no. 24765-1). For drug treatment experiments, drugs were added 12 h post-transfection and incubated with cells for 24 h before the SEAP reporter detection assay.
SEAP activity (U l^−1) in cell culture supernatants was quantified by kinetic measurements at 405 nm (1 minute per measurement for 30 cycles) of absorbance increase due to phosphatase-mediated hydrolysis of para-nitrophenyl phosphate (pNPP).
Binding affinities of SPR drug competition assays were calculated using three-parameter nonlinear regression in GraphPad Prism (v.8.3.0). Representative data of cell assays are presented as individual values and mean values (bars). n = 3 refers to biological replicates. All IC50 or EC50 values of cell assays reported were calculated using four-parameter nonlinear regression ± s.d. Bandpass features of cutoff concentrations and Bandwidth90% were estimated based on the curve fitted using bell-shaped curve nonlinear regression in GraphPad Prism (v.8.3.0). […]
Supplementary Figure 4: Design, screening and validation of BclXLhigh variants. a) Screening of BclXLhigh variants in the GEMS platform. […]
Dissociation constant measurement of BclXLhigh-v(1-3) and LD3. Equilibrium curves are fitted using […]
BclXLhigh-v1 (purple), BclXLhigh-v2 (blue), […]
a) Bcl2high-based bandpass filter designs were developed and to respond to different concentrations of […]
corresponding inhibitor. c) Screening of Bcl2high-based bandpass filter variants in the GEMS platform.
The designed binder LD3 was fused to the druglow-receptor (PSV40-IgK-Bcl2-LD3-EpoRm-IL-6RBm-pA) in one EpoR chain and Bcl2high variants with the insensitive Bcl2 (iBcl2) as control in the other EpoR chain (PSV40-IgK-Bcl2high-EpoRm-IL-6RBm-pA). HEK293T cells were transfected with indicated […]
the mean of six biological replicates ± s.d., overlaid with a scatter dot plot of the original data points.
(1 picture or pasted object on this page, not shown here)
Supplementary Figure 6: Binding affinities and drug resistances of Bcl2high-v(2,4,5) assessed by […]
a) Measurement of dissociation constants for Bcl2high-v(2,4,5) and LD3 interactions. Equilibrium curves […]
Bcl2high-v(2,4,5) measured by SPR. 5 μM of Bcl2 or indicated variants were mixed with 10 μM of […]
Bcl2high-v2 (red), Bcl2high-v4
Supplementary Figure 7: Screening of LD3 variants in CBPA11-v(1-3) and raw data of CBPA11-v(1,3) with LD3-v3 variant. a-c) Screening of LD3 and LD3-v(1-3) variants in complex with BclXL for more sensitive CBPA11-v1 (a), CBPA11-v2 (b), CBPA11-v3 (c) in the GEMS platform. The LD3 variants replaced the role of LD3 (PSV40-IgK-BclXL-LD3-v(1-3)-EpoRm-IL-6RBm-pA) in one EpoR chain and BclXLhigh-v(1-3) in the other EpoR chain (PSV40-IgK-BclXLhigh-V(1-3)-EpoRm-IL-6RBm-pA). HEK293T cells were transfected with […]

[1] = CBPA11-v1-LD3v3, A-1155463 1 nM
[2] = CBPA11-v1-LD3v3, A-1155463 3.18 nM
[3] = CBPA11-v1-LD3v3, A-1155463 10 nM
[4] = CBPA11-v1-LD3v3, A-1155463 31.8 nM
[5] = CBPA11-v1-LD3v3, A-1155463 100 nM
[6] = CBPA11-v1-LD3v3, A-1155463 318 nM
[7] = CBPA11-v1-LD3v3, A-1155463 1000 nM
[8] = CBPA11-v1-LD3v3, A-1155463 3180 nM
[9] = CBPA11-v1-LD3v3, A-1155463 10000 nM

## CN(C)CC#Cc1ccc(OCCCc2sc(N3CCc4cccc(C(=O)Nc5nc6ccccc6s5)c4C3)nc2C(=O)O)c(F)c1 [A-1155463]
[1]
  Normalized data of Figure 5b: 12.3584 and 11.9384 and 10.5903
  Raw data of Figure 5b: 17.44 and 15.4815 and 15.2319
  Raw data of Independent repeat of CBPA11-v1 vs CBPA11-v1-LD3v3: 31.801 and 28.5095 and 29.309
CBPA11-v1-LD3v3, A-1155463 3.16 nM
  Raw data of Independent repeat of CBPA11-v1 vs CBPA11-v1-LD3v3: 34.9091 and 28.121 and 21.957
[2]
  Normalized data of Figure 5b: 13.5394 and 12.5226 and 10.9319
  Raw data of Figure 5b: 19.1065 and 16.239 and 15.7232
[3]
  Normalized data of Figure 5b: 25.1514 and 28.7722 and 29.2973
  Raw data of Figure 5b: 35.4931 and 37.3111 and 42.1378
  Raw data of Independent repeat of CBPA11-v1 vs CBPA11-v1-LD3v3: 179.972 and 131.844 and 140.391
CBPA11-v1-LD3v3, A-1155463 31.6 nM
  Raw data of Independent repeat of CBPA11-v1 vs CBPA11-v1-LD3v3: 226.429 and 187.26 and 191.409
[4]
  Normalized data of Figure 5b: 78.9386 and 88.4215 and 71.2191
  Raw data of Figure 5b: 111.396 and 114.663 and 102.433
[5]
  Normalized data of Figure 5b: 100
  Raw data of Figure 5b: 141.118 and 129.678 and 143.828
  Raw data of Independent repeat of CBPA11-v1 vs CBPA11-v1-LD3v3: 335.207 and 287.921 and 227.786
CBPA11-v1-LD3v3, A-1155463 316 nM
  Raw data of Independent repeat of CBPA11-v1 vs CBPA11-v1-LD3v3: 270.923 and 196.943 and 173.263
[6]
  Normalized data of Figure 5b: 62.5942 and 62.3431 and 56.6992
  Raw data of Figure 5b: 88.3315 and 80.8452 and 81.5497
[7]
  Normalized data of Figure 5b: 29.9151 and 30.048 and 29.0586
  Raw data of Figure 5b: 42.2154 and 38.9656 and 41.7945
  Raw data of Independent repeat of CBPA11-v1 vs CBPA11-v1-LD3v3: 123.233 and 79.9582 and 97.1187
CBPA11-v1-LD3v3, A-1155463 3160 nM
  Raw data of Independent repeat of CBPA11-v1 vs CBPA11-v1-LD3v3: 45.1078 and 32.2032 and 26.5323
[8]
  Normalized data of Figure 5b: 11.3098 and 14.9107 and 12.4987
  Raw data of Figure 5b: 15.9601 and 19.3359 and 17.9766
[9]
  Normalized data of Figure 5b: 8.9981 and 9.291 and 5.288
  Raw data of Figure 5b: 12.6979 and 12.0483 and 7.606
  Raw data of Independent repeat of CBPA11-v1 vs CBPA11-v1-LD3v3: 23.0011 and 17.3094 and 15.2043
CBPA11-v3, A-1155463 0.01 nM
  Raw data of Independent repeat of CBPA11-v3 vs CBPA11-v3-LD3v3: 26.5862 and 23.5891 and 24.9373
CBPA11-v3, A-1155463 1 nM
  Normalized data Figure 5e: 14.7288 and 13.7384 and 12.9495
  Normalized data of Figure 5b: 2.438 and 2.3416 and 2.8403
  Raw data of Figure 5b: 13.0926 and 12.3286 and 14.9355
  Raw data of Independent repeat of CBPA11-v3 vs CBPA11-v3-LD3v3: 77.8998 and 72.2772 and 68.2722
CBPA11-v3, A-1155463 3.16 nM
  Raw data of Independent repeat of CBPA11-v3 vs CBPA11-v3-LD3v3: 101.26 and 74.5174 and 69.017
CBPA11-v3, A-1155463 3.18 nM
  Normalized data Figure 5e: 19.1455 and 14.1642 and 13.0908
CBPA11-v3, A-1155463 10 nM
  Normalized data Figure 5e: 52.8574 and 45.1451 and 43.5321
  Normalized data of Figure 5b: 22.9212 and 24.7467 and 27.0042
  Raw data of Figure 5b: 123.11 and 130.292 and 142
  Raw data of Independent repeat of CBPA11-v3 vs CBPA11-v3-LD3v3: 279.56 and 237.506 and 229.509
CBPA11-v3, A-1155463 31.6 nM
  Raw data of Independent repeat of CBPA11-v3 vs CBPA11-v3-LD3v3: 420.603 and 418.534 and 369.593
CBPA11-v3, A-1155463 31.8 nM
  Normalized data Figure 5e: 79.525 and 79.5547 and 70.1024
  Normalized data of Figure 5b: 52.5804 and 56.6221 and 62.0483
  Raw data of Figure 5b: 282.41 and 298.117 and 326.277
CBPA11-v3, A-1155463 100 nM
  Normalized data Figure 5e: 93.7695 and 93.9386 and 100
  Normalized data of Figure 5b: 84.9271 and 84.8554 and 85.7543
  Raw data of Figure 5b: 456.144 and 446.765 and 450.933
CBPA11-v3, A-1155463 318 nM
  Normalized data Figure 5e: 100 and 99.7629
  Normalized data of Figure 5b: 100
  Raw data of Figure 5b: 537.1 and 526.502 and 525.843

From article PMC11062894, “Protein-based bandpass filters for controlling cellular signaling with chemical inputs” (Nature Chemical Biology, 2023)
